Among the test systems are CAKI-1; CCRF-CEM; HOP-92; M14; NCI-H522; OVCAR-3; RXF 393; SK-MEL-28; SK-MEL-5; SNB-19; SNB-75; TK-10; U-251; UO-31; HL-60; UACC-257.
Test in all cases: DTP human tumour cell line panel, 48 h

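Grown in 96-well plates, cells were treated for 48 hours with each compound at five concentrations. Insufficient inhibition: endpoint recorded as highest concentration tested. GI50 = concentration required for 50% inhibition of growth.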 Active and inactive are the calls of the source. No stated cut-off is given here; in the data, active = GI50 up to about 1.1 µM and inactive = higher. A value given as a limit tells only on which side of the number the result lay.

As to `O=c1c2cccnc2ncn1CCN1CCCCC1`, the GI50 with CAKI-1, in the assay on CCRF-CEM, in the assay with HOP-92, with M14, in the assay on NCI-H522 and in the assay with OVCAR-3 was > 100 µM (inactive) in each case. Further, the GI50 in the assay with RXF 393, in the assay on SK-MEL-28, in the assay with SK-MEL-5, with SNB-19, in the assay with SNB-75 and in the assay with TK-10 was > 100 µM (inactive) each time. In addition, the GI50 with U-251 and with UO-31 was > 100 µM (inactive) each time.
Consider `Cc1ccc(O)c(C(=O)CCCC(=O)c2cc(C)ccc2O)c1`, for which the GI50 – broadly, the concentration at which growth is held to half of that of the control – in the assay on CAKI-1 is > 100 µM (inactive); with CCRF-CEM, > 100 µM (inactive); in the assay with HL-60, 27.4 µM (inactive); in the assay with HOP-92, 61 µM (inactive); in the assay with M14, > 100 µM (inactive); in the assay with NCI-H522, 63.8 µM (inactive). Moreover, the GI50 is > 100 µM (inactive) with SK-MEL-28; > 100 µM (inactive) in the assay with SK-MEL-5; 46.1 µM (inactive) with SNB-19; 81.5 µM (inactive) in the assay on SNB-75; 48.1 µM (inactive) with TK-10; 52.4 µM (inactive) with U-251. Moreover, the values for the GI50 in the assay with UACC-257 and in the assay with UO-31 were > 100 µM (inactive) and 44.9 µM (inactive), respectively.
In the case of `COc1cc(CNc2cnc3cc(N)ccc3n2)cc(OC)c1OC`, the GI50 is 34.7 µM (inactive) with CAKI-1; 31.4 µM (inactive) in the assay with CCRF-CEM; 7.21 µM (inactive) in the assay with HL-60; 58.5 µM (inactive) in the assay with HOP-92; 16.4 µM (inactive) with M14; 18.8 µM (inactive) in the assay with NCI-H522. Further, the GI50 was 12.6 µM (inactive) in the assay on OVCAR-3; > 100 µM (inactive) with SK-MEL-28; 14.9 µM (inactive) in the assay with SK-MEL-5; 34.8 µM (inactive) in the assay on SNB-19; 31.6 µM (inactive) in the assay on SNB-75; 64.9 µM (inactive) in the assay on TK-10. For the same molecule, the GI50 in the assay with U-251 was 29.2 µM (inactive); in the assay with UACC-257 it was > 100 µM (inactive); in the assay on UO-31 it was 36.8 µM (inactive).
For the molecule `CC1NS(=O)(=O)N(C)C1=O` (configuration not stated), the GI50 in the assay on CAKI-1, in the assay with CCRF-CEM, in the assay with HL-60, with HOP-92, in the assay with M14 and in the assay with NCI-H522 was > 100 µM (inactive) in each case. The GI50 with OVCAR-3 was > 100 µM (inactive); with RXF 393, > 100 µM (inactive); in the assay on SK-MEL-28, > 100 µM (inactive); with SK-MEL-5, > 100 µM (inactive); in the assay on SNB-75 it was 81.8 µM (inactive); in the assay with TK-10, > 100 µM (inactive). For the same molecule, the GI50 with U-251 and with UACC-257 was > 100 µM (inactive) each time.
Turning to `Cc1ccc(C2(O)CC(c3ccc([N+](=O)[O-])o3)=NN2C(=O)COc2ccccc2Cl)cc1` (configuration not stated), the GI50 in the assay on CAKI-1 is 19.4 µM (inactive); in the assay on CCRF-CEM, 5.45 µM (inactive); with HL-60 it was 2.84 µM (inactive); in the assay on HOP-92, 27.4 µM (inactive); in the assay with M14, 8.45 µM (inactive); with NCI-H522 it was 13.1 µM (inactive). Moreover, the GI50 in the assay with OVCAR-3 is 3.94 µM (inactive); with SK-MEL-28, 15.2 µM (inactive); with SK-MEL-5, 2.75 µM (inactive); in the assay on SNB-19, 14.8 µM (inactive); with SNB-75, 15.3 µM (inactive); with TK-10, 35.7 µM (inactive). Further, the GI50 in the assay on U-251 is 9.68 µM (inactive); in the assay with UACC-257, 8.18 µM (inactive); with UO-31, 12.5 µM (inactive).
On to `CCCCCCCCCC1C(C)c2c([nH]c3ccccc23)C2C(=O)N(c3ccccc3)C(=O)C21` (configuration not stated), for which the GI50 was 14 µM (inactive) in the assay on CAKI-1; 3.1 µM (inactive) in the assay on CCRF-CEM; 3.71 µM (inactive) with HL-60; 13.1 µM (inactive) in the assay with M14; 3.43 µM (inactive) with OVCAR-3; 1.85 µM (inactive) in the assay with RXF 393. The GI50 is 2.29 µM (inactive) in the assay with SK-MEL-28; 17 µM (inactive) with SK-MEL-5; 13.5 µM (inactive) with SNB-75; 28 µM (inactive) with TK-10; 13.8 µM (inactive) in the assay on U-251; 15.8 µM (inactive) with UACC-257. Also, the GI50 in the assay on UO-31 is 13 µM (inactive).
On to `COC(=O)/C(C#N)=C1\CCc2ccccc21`, for which the GI50 in the assay on CAKI-1, in the assay on CCRF-CEM, in the assay on HL-60, with HOP-92, with M14 and in the assay with NCI-H522 was > 100 µM (inactive) throughout. For the same molecule, the GI50 in the assay with OVCAR-3, in the assay with RXF 393, in the assay with SK-MEL-28, with SK-MEL-5, in the assay with SNB-19 and in the assay with SNB-75 was > 100 µM (inactive) in each case. Besides, the GI50 in the assay on TK-10, in the assay on UACC-257 and in the assay on UO-31 was > 100 µM (inactive) each time.
As to `Cn1ccc(=NS(=O)(=O)c2ccccc2)cc1`, the GI50 in the assay with CCRF-CEM, in the assay with HL-60, in the assay with HOP-92, in the assay with NCI-H522, in the assay with OVCAR-3 and with RXF 393 was > 100 µM (inactive) each time. Also, the GI50 in the assay with SK-MEL-28, with SK-MEL-5, in the assay on SNB-19, with SNB-75, in the assay with TK-10 and in the assay on U-251 was > 100 µM (inactive) each time. Besides, the GI50 in the assay on UACC-257 and with UO-31 was > 100 µM (inactive) throughout.
For `Nc1nc(O)c2c(ncn2CCO)n1`, the GI50 with CCRF-CEM, in the assay with HL-60, with HOP-92, with OVCAR-3, with RXF 393 and in the assay with SK-MEL-28 was > 100 µM (inactive) each time. For the same molecule, the GI50 with SNB-19, with SNB-75, in the assay on TK-10, in the assay on U-251, with UACC-257 and in the assay with UO-31 was > 100 µM (inactive) in each case.
In the case of `NC1=NS(=O)(=O)Nc2nc(-c3ccccc3)c(-c3ccccc3)nc21`, the GI50 in the assay on CCRF-CEM, with HL-60, in the assay with HOP-92, in the assay on M14, with NCI-H522 and in the assay with OVCAR-3 was > 100 µM (inactive) throughout. Moreover, the GI50 with RXF 393, in the assay on SK-MEL-28, in the assay on SK-MEL-5, in the assay on SNB-19, with SNB-75 and in the assay with TK-10 was > 100 µM (inactive) throughout. For the same molecule, the GI50 in the assay with U-251, in the assay on UACC-257 and in the assay on UO-31 was > 100 µM (inactive) throughout.
Regarding `N#Cc1c2nc3ccccc3nc2n2ccccc12`, the GI50 in the assay with CAKI-1, in the assay with CCRF-CEM, with HL-60, with M14, in the assay with NCI-H522 and in the assay with OVCAR-3 was > 100 µM (inactive) in each case. Further, the GI50 in the assay on SK-MEL-28, with SK-MEL-5, in the assay with SNB-19, with SNB-75, in the assay on TK-10 and with U-251 was > 100 µM (inactive) each time. Moreover, the GI50 in the assay on UACC-257 and in the assay with UO-31 was > 100 µM (inactive) in each case.
Regarding `COc1ccc2nc3c(C(=O)NCCN(C)C)cccc3nc2c1`, the GI50 in the assay on CAKI-1 is 3.75 µM (inactive); in the assay with CCRF-CEM, 5.55 µM (inactive); in the assay on HL-60, 4.23 µM (inactive); with HOP-92, 4.34 µM (inactive); with M14 it was 5.56 µM (inactive); in the assay with OVCAR-3, 10.2 µM (inactive). In addition, the GI50 was 8.3 µM (inactive) in the assay with SK-MEL-28; 4.31 µM (inactive) in the assay with SK-MEL-5; 6.21 µM (inactive) in the assay with SNB-19; 7.35 µM (inactive) in the assay on SNB-75; 3.37 µM (inactive) with TK-10; 5 µM (inactive) in the assay on U-251. Moreover, the values for the GI50 with UACC-257 and in the assay on UO-31 were 3.91 µM (inactive) and 4.89 µM (inactive), respectively.
Consider `O=C1c2cccc(O)c2C(=O)c2cccc(O)c21` [ANTHRARUFIN], for which the GI50 in the assay with CAKI-1, in the assay with CCRF-CEM, with HOP-92, with M14, with NCI-H522 and in the assay with OVCAR-3 was > 100 µM (inactive) in each case. In addition, the GI50 in the assay with RXF 393, in the assay on SNB-19, in the assay on SNB-75, with TK-10, in the assay with U-251 and with UACC-257 was > 100 µM (inactive) throughout. Also, the GI50 with UO-31 is > 100 µM (inactive).
In the case of `Cc1cc(NCCCCCCCCNc2cc(C)nc3cc(N)ccc23)c2ccc(N)cc2n1`, the GI50 with CAKI-1 was 46.8 µM (inactive); in the assay with CCRF-CEM it was 3.13 µM (inactive); with HL-60 it was 0.566 µM (active); in the assay on M14, 16.7 µM (inactive); in the assay on NCI-H522, 3.78 µM (inactive); in the assay with OVCAR-3 it was 14.9 µM (inactive). Further, the GI50 is 27.7 µM (inactive) in the assay with RXF 393; 19.9 µM (inactive) in the assay on SK-MEL-28; 10.9 µM (inactive) in the assay on SK-MEL-5; 14.1 µM (inactive) in the assay on SNB-19; 16.4 µM (inactive) in the assay on SNB-75; 44.9 µM (inactive) in the assay on TK-10. Besides, the GI50 with U-251 was 8.57 µM (inactive); in the assay with UACC-257, 12.7 µM (inactive); with UO-31 it was > 100 µM (inactive).

(Values after ChEMBL document CHEMBL1201862, “PubChem BioAssay data set” (2004).)
